Assay results published in publication PMC6150365, “Simultaneous Determination of Seven Components in Rat Plasma by the UPLC-MS/MS Method and Application of Pharmacokinetic Studies to SimiaoYong’an Decoction” (Molecules : A Journal of Synthetic Chemistry and Natural …, 2017).

Assay: Pharmacokinetic study in rats after oral administration of SYD extract and its single and combined TCM extracts (UPLC-MS/MS of plasma)
Conditions: male, Sprague-Dawley, rat, plasma, po, n = 6; for AUC(0-t) / AUC(0-inf) / Cmax / MRT last / MRT inf / Tmax: rat plasma; for MRT last: MRT(0–t); for MRT inf: MRT(0–∞)
[1] = 2.49 g/kg, oral SN extract 2.49 g/kg
[2] = 3.38 g/kg extract (6.67 g/kg as herbs), oral SN + GU extract
[3] = 3.38 g·kg^−1 (extract), oral SN + GU extract
[4] = 3.98 g/kg extract (8.33 g/kg as herbs), oral SN + AS extract
[5] = 4.5 g·kg^−1 (extract), oral LJ + SN extract
[6] = 4.5 g·kg^−1 extract, oral LJ + SN extract
[7] = 4.73 g/kg, oral LJ + SN + GU extract 4.73 g/kg
[8] = 5.43 g/kg, oral LJ + SN + AS extract 5.43 g/kg
[9] = 8.25 g/kg, oral SYD extract 8.25 g/kg

Method: Pieces of LJ, SN, AS and GU were weighed according to the proportion of 3:3:2:1 with appropriate amounts. The mixed pieces were crushed and decocted two times (60 min each time) with water (1:10 w/v) after being soaked for 60 min. The decoctions were then combined and condensed to the concentration of 0.5 g/mL, after which 95% ethanol was slowly added to the concentrate until a final ethanol concentration of 70% was reached. The SYD solution was set at room temperature overnight and then was filtered. The solvent was recovered, and the residue was dried under reduced pressure. A certain amount of the water extract of SYD was weighed and then dissolved with purified water for intragastric (oral) administration solution. The single herbs and different combination groups such as LJ, SN, AS, GU, LJ + SN, LJ + AS, LJ + GU, SN + AS, SN + GU, AS + GU, LJ + SN + AS, LJ + SN + GU, LJ + AS + GU and SN + AS + GU were prepared according to the procedure of SYD.
Male Sprague-Dawley (SD) rats (body weight 250 ± 10 g) were supplied by the SPF (Beijing) Biotechnology Co., Ltd. (Certificate No.: SCXK 2016-0002, Beijing, China). The animals were maintained in controlled conditions (temperature 20–25 °C, relative humidity 55–60% and 12-h light/12-h dark cycle) with free access to standard laboratory food and water for seven days of acclimation and then fasted for 12 h before each experiment but allowed to drink freely during this time.
Ninety male SD rats were randomly separated into 15 groups and administered a dosage of extract via gastric gavage once per day; detailed information about the oral daily dose of SYD extract and the corresponding single and combined TCMs (LJ, SN, AS, GU, LJ + SN, LJ + AS, LJ + GU, SN + AS, SN + GU, AS + GU, LJ + SN + AS, LJ + SN + GU, LJ + AS + GU, SN + AS + GU and SYD) is listed in Table 4.
Each plasma sample (200 μL) with 50 μL IS solution added was spiked into 100 μL 1% formic acid distilled water solution and then vortexed for 1 min. Protein was precipitated by adding 600 μL of methanol to the mixture. After being vortexed and sonicated, the samples were centrifuged at 25,000 r/min, 4 °C for 10 min. The supernatant of each sample was transferred to a new 2-mL centrifuge tube and evaporated to dryness by N2 at 40 °C. Finally, the residue was dissolved in 100 μL methanol–water (1:1, v/v), followed by centrifugation at 30,000 r/min, 4 °C for 10 min, and 10-μL supernatant aliquots were injected into the UPLC-MS/MS system for analysis.
The SYD was decomposed into 15 groups of compatibility combinations (LJ, SN, AS, GU, LJ + SN, LJ + AS, LJ + GU, SN + AS, SN + GU, AS + GU, LJ + SN + AS, LJ + SN + GU, LJ + AS + GU, SN + AS + GU and SYD). The 15 combinations were weighed according to the proportion of 3:3:2:1 with appropriate amounts and prepared by the method described in “Section 3.2”. Six male SD rats (body weight 250 ± 10 g) of each compatibility group were used in the pharmacokinetic study. After 12-h fast, rats of the different groups were orally administered the respective extract dissolved in saline (Table 4). Venous blood (0.45 mL) was obtained from the orbit vein and collected in heparin-pretreated polypropylene centrifuge tubes at 0.083 h, 0.17 h, 0.25 h, 0.50 h, 0.75 h, 1.0 h, 1.5 h, 2.0 h, 3.0 h, 4.0 h, 6.0 h, 8.0, 12 h and 24 h post-dose. The plasma was separated by centrifugation at 8000 r/min for 10 min and then stored at −20 °C until analysis. The amount of each analyte in the plasma was estimated by UPLC-MS/MS analysis as described in Section 3.5.
Non-compartmental methods using Phoenix WinNonlin 7.0 software provided by the Beijing University of Chinese Medicine were used to analyze plasma concentration versus time profiles and to estimate the following pharmacokinetic parameters: terminal elimination half-lives (t1/2), area under the plasma concentration versus time curve from zero to last sampling time (AUC), and the mean residence time (MRT).

## C[C@]1(OC(=O)/C=C/c2ccccc2)C[C@@H](O)[C@]2(O)C=CO[C@@H](O[C@@H]3O[C@H](CO)[C@@H](O)[C@H](O)[C@H]3O)[C@@H]21 [Harpagoside, harpagoside]
[1]
  AUC(0-t): 310 ± 110 ng·h/mL
  AUC(0-inf): 320 ± 110 ng·h/mL
  Cmax: 110 ± 50 ng/mL
  MRT last: 4.75 ± 1.17 h
  MRT inf: 5.69 ± 3.19 h
  Tmax: 1.08 ± 0.47 h
2.49 g/kg, t1/2, rat plasma, oral SN extract 2.49 g/kg
  half-life: 3.34 ± 3.36 h
[2]
  MRT last: 5.72 ± 2.55 h
  MRT inf: 47.5 ± 78.2 h
  Tmax: 1.25 ± 0.59 h
3.38 g/kg extract (6.67 g/kg as herbs), t1/2, rat plasma, oral SN + GU extract
  half-life: 18.3 ± 6.9 h
[3]
  AUC(0-t): 80 ± 10 ng·h/mL
  AUC(0-inf): 110 ± 80 ng·h/mL
3.38 g·kg^−1 extract, oral SN + GU extract
  Cmax: 50 ± 10 ng/mL
[4]
  AUC(0-t): 100 ± 70 ng·h/mL
  AUC(0-inf): 130 ± 90 ng·h/mL
  MRT last: 4.51 ± 2.04 h
  MRT inf: 41.9 ± 67.3 h
3.98 g·kg^−1, t1/2, rat plasma, oral SN + AS extract
  half-life: 16.6 ± 1.4 h
3.98 g·kg^−1 extract, oral SN + AS extract
  Cmax: 70 ± 10 ng/mL
[5]
  MRT last: 5.32 ± 1.39 h
  MRT inf: 46.3 ± 70.7 h
4.5 g·kg^−1 (extract), t1/2, rat plasma, oral LJ + SN extract
  half-life: 15.8 ± 1.19 h
[6]
  AUC(0-t): 60 ± 10 ng·h/mL
  AUC(0-inf): 90 ± 10 ng·h/mL
  Cmax: 30 ng/mL
[7]
  AUC(0-t): 150 ± 70 ng·h/mL
  AUC(0-inf): 190 ± 110 ng·h/mL
  Cmax: 80 ng/mL
  MRT last: 3.17 ± 0.59 h
  MRT inf: 22.6 ± 31.1 h
  Tmax: 1.79 ± 0.51 h
4.73 g/kg, t1/2, rat plasma, oral LJ + SN + GU extract 4.73 g/kg
  half-life: 13.3 ± 4.59 h
[8]
  AUC(0-t): 110 ± 80 ng·h/mL
  AUC(0-inf): 110 ± 80 ng·h/mL
  Cmax: 50 ng/mL
  MRT last: 3.16 ± 0.68 h
  MRT inf: 13 ± 19.9 h
  Tmax: 1.63 ± 0.49 h
5.43 g/kg, t1/2, rat plasma, oral LJ + SN + AS extract 5.43 g/kg
  half-life: 9.79 ± 5.03 h
[9]
  AUC(0-t): 120 ± 90 ng·h/mL
  AUC(0-inf): 140 ± 90 ng·h/mL
  Cmax: 70 ± 70 ng/mL
  MRT last: 3.92 ± 1.31 h
  MRT inf: 19.8 ± 8.74 h
  Tmax: 1.5 h
8.25 g/kg, t1/2, rat plasma, oral SYD extract 8.25 g/kg
  half-life: 11.2 ± 2.64 h
[…], oral SN + AS + GU extract […]
  Tmax: 0.83 ± 0.13 h
[…], t1/2, rat plasma, oral SN + AS + GU extract […]
  half-life: 15.5 ± 1.54 h
